Data from ChEMBL document CHEMBL1138820, “Synthesis and QSAR studies of pyrimido[4,5-d]pyrimidine-2,5-dione derivatives as potential antimicrobial agents” (2004).
≈ marks a conversion by molar mass, not a printed value.

What was measured:
Type in all cases: functional
Bacillus subtilis = test: Minimum inhibitory concentration required for antibacterial activity against Bacillus subtilis ATCC 6633; gram positive
Escherichia coli = test: Minimum inhibitory concentration required for antibacterial activity against Escherichia coli ATCC 13607; gram negative
[1] = Minimum inhibitory concentration required for antibacterial activity against Pseudomonas diminuta MTCC 3361; gram negative; conditions: Brevundimonas diminuta
Staphylococcus aureus = test: Minimum inhibitory concentration required for antibacterial activity against Staphylococcus aureus ATCC 2943; gram positive
Aspergillus niger = test: Minimum inhibitory concentration required for antifungal activity against Aspergillus niger ATCC 16404
Candida albicans = test: Minimum inhibitory concentration required for antifungal activity against Candida albicans ATCC 10321

`CC1(C)S[C@@H]2[C@H](NC(=O)[C@H](N)c3ccccc3)C(=O)N2[C@H]1C(=O)O` [AMPICILLIN] gave an MIC (Bacillus subtilis) of 10 mg/L (≈ 28.6 µM), an MIC (Escherichia coli) of 49 mg/L (≈ 140 µM) and an MIC [1] of 15 mg/L (≈ 42.9 µM). It also gave an MIC (Staphylococcus aureus) of 50 mg/L (≈ 143 µM).
Work on `O=C1Nc2[nH]c(=S)n(-c3ccc([N+](=O)[O-])cc3)c(=O)c2C(c2ccccc2Cl)N1/N=N/c1ccc(Cl)cc1` (configuration not stated) yielded an MIC (Aspergillus niger) of 19 mg/L (≈ 33.4 µM), an MIC (Bacillus subtilis) of 6 mg/L (≈ 10.6 µM) and an MIC (Escherichia coli) of 7 mg/L (≈ 12.3 µM). For the same compound, the MIC [1] was 9 mg/L (≈ 15.8 µM), the MIC (Staphylococcus aureus) was 4 mg/L (≈ 7.04 µM) and the MIC (Candida albicans) was 15 mg/L (≈ 26.4 µM).
Work on `Clc1ccccc1C(c1ccccc1)(c1ccccc1)n1ccnc1` [CLOTRIMAZOLE] yielded an MIC (Aspergillus niger) of 20 mg/L (≈ 58 µM) and an MIC (Candida albicans) of 25 mg/L (≈ 72.5 µM).
`O=C1Nc2[nH]c(=S)n(-c3cccc(Cl)c3)c(=O)c2C(c2ccccc2Cl)N1/N=N/c1ccc(Cl)cc1` (configuration not stated) showed an MIC (Aspergillus niger) of 14 mg/L (≈ 25.1 µM), an MIC (Bacillus subtilis) of 4 mg/L (≈ 7.17 µM) and an MIC (Escherichia coli) of 4 mg/L (≈ 7.17 µM). For the same compound, the MIC [1] was 5 mg/L (≈ 8.96 µM), the MIC (Staphylococcus aureus) was 2 mg/L (≈ 3.59 µM) and the MIC (Candida albicans) was 11 mg/L (≈ 19.7 µM).
Work on `O=C1Nc2[nH]c(=S)n(-c3cccc([N+](=O)[O-])c3)c(=O)c2C(c2ccccc2Cl)N1/N=N/c1ccc(Cl)cc1` (configuration not stated) yielded an MIC (Aspergillus niger) of 16 mg/L (≈ 28.1 µM), an MIC (Bacillus subtilis) of 5 mg/L (≈ 8.8 µM) and an MIC (Escherichia coli) of 6 mg/L (≈ 10.6 µM). The MIC [1] was 8 mg/L (≈ 14.1 µM), the MIC (Staphylococcus aureus) was 3 mg/L (≈ 5.28 µM) and the MIC (Candida albicans) was 13 mg/L (≈ 22.9 µM).
Compound `Cc1ccc(-n2c(=S)[nH]c3c(c2=O)C(c2ccccc2Cl)N(/N=N/c2ccc(Cl)cc2)C(=O)N3)cc1` (configuration not stated) has an MIC (Aspergillus niger) of 42 mg/L (≈ 78.1 µM), an MIC (Bacillus subtilis) of 22 mg/L (≈ 40.9 µM) and an MIC (Escherichia coli) of 26 mg/L (≈ 48.4 µM). For the same compound, the MIC [1] was 31 mg/L (≈ 57.7 µM), the MIC (Staphylococcus aureus) was 21 mg/L (≈ 39.1 µM) and the MIC (Candida albicans) was 39 mg/L (≈ 72.6 µM).
`O=C1Nc2[nH]c(=S)n(-c3cccc(O)c3)c(=O)c2C(c2ccccc2Cl)N1/N=N/c1ccc(Cl)cc1` (configuration not stated) gave an MIC (Aspergillus niger) of 24 mg/L (≈ 44.5 µM), an MIC (Bacillus subtilis) of 8 mg/L (≈ 14.8 µM) and an MIC (Escherichia coli) of 10 mg/L (≈ 18.5 µM). The MIC [1] was 13 mg/L (≈ 24.1 µM), the MIC (Staphylococcus aureus) was 6 mg/L (≈ 11.1 µM) and the MIC (Candida albicans) was 20 mg/L (≈ 37.1 µM).
In the case of `O=C1Nc2[nH]c(=S)n(-c3ccccc3)c(=O)c2C(c2ccccc2Cl)N1/N=N/c1ccc(Cl)cc1` (configuration not stated), the MIC (Aspergillus niger) is reported as 57 mg/L (≈ 109 µM), the MIC (Bacillus subtilis) is reported as 37 mg/L (≈ 70.7 µM) and the MIC (Escherichia coli) is reported as 40 mg/L (≈ 76.4 µM). It also gave an MIC [1] of 46 mg/L (≈ 87.9 µM), an MIC (Staphylococcus aureus) of 32 mg/L (≈ 61.1 µM) and an MIC (Candida albicans) of 52 mg/L (≈ 99.3 µM).
In the case of `COc1ccc(-n2c(=S)[nH]c3c(c2=O)C(c2ccccc2Cl)N(/N=N/c2ccc(Cl)cc2)C(=O)N3)cc1` (configuration not stated), the MIC (Aspergillus niger) is reported as 33 mg/L (≈ 59.6 µM), the MIC (Bacillus subtilis) is reported as 16 mg/L (≈ 28.9 µM) and the MIC (Escherichia coli) is reported as 17 mg/L (≈ 30.7 µM). It also gave an MIC [1] of 21 mg/L (≈ 37.9 µM), an MIC (Staphylococcus aureus) of 11 mg/L (≈ 19.9 µM) and an MIC (Candida albicans) of 29 mg/L (≈ 52.4 µM).
`O=C1Nc2[nH]c(=S)n(-c3ccc(Cl)cc3)c(=O)c2C(c2ccccc2Cl)N1/N=N/c1ccc(Cl)cc1` (configuration not stated) gave an MIC (Aspergillus niger) of 29 mg/L (≈ 52 µM), an MIC (Bacillus subtilis) of 12 mg/L (≈ 21.5 µM) and an MIC (Escherichia coli) of 13 mg/L (≈ 23.3 µM). The MIC [1] was 14 mg/L (≈ 25.1 µM), the MIC (Staphylococcus aureus) was 9 mg/L (≈ 16.1 µM) and the MIC (Candida albicans) was 24 mg/L (≈ 43 µM).
For `O=C(O)c1ccc(-n2c(=S)[nH]c3c(c2=O)C(c2ccccc2Cl)N(/N=N/c2ccc(Cl)cc2)C(=O)N3)cc1` (configuration not stated), the MIC (Aspergillus niger) was 22 mg/L (≈ 38.8 µM), the MIC (Bacillus subtilis) was 7 mg/L (≈ 12.3 µM) and the MIC (Escherichia coli) was 8 mg/L (≈ 14.1 µM). It also gave an MIC [1] of 11 mg/L (≈ 19.4 µM), an MIC (Staphylococcus aureus) of 5 mg/L (≈ 8.81 µM) and an MIC (Candida albicans) of 17 mg/L (≈ 30 µM).
Compound `Cc1cccc(-n2c(=S)[nH]c3c(c2=O)C(c2ccccc2Cl)N(/N=N/c2ccc(Cl)cc2)C(=O)N3)c1` (configuration not stated) has an MIC (Aspergillus niger) of 39 mg/L (≈ 72.6 µM), an MIC (Bacillus subtilis) of 21 mg/L (≈ 39.1 µM) and an MIC (Escherichia coli) of 22 mg/L (≈ 40.9 µM). It also gave an MIC [1] of 25 mg/L (≈ 46.5 µM), an MIC (Staphylococcus aureus) of 18 mg/L (≈ 33.5 µM) and an MIC (Candida albicans) of 35 mg/L (≈ 65.1 µM).
`O=C1Nc2[nH]c(=S)n(-c3ccc(O)cc3)c(=O)c2C(c2ccccc2Cl)N1/N=N/c1ccc(Cl)cc1` (configuration not stated) gave an MIC (Aspergillus niger) of 27 mg/L (≈ 50.1 µM), an MIC (Bacillus subtilis) of 10 mg/L (≈ 18.5 µM) and an MIC (Escherichia coli) of 12 mg/L (≈ 22.2 µM). For the same compound, the MIC [1] was 15 mg/L (≈ 27.8 µM), the MIC (Staphylococcus aureus) was 8 mg/L (≈ 14.8 µM) and the MIC (Candida albicans) was 23 mg/L (≈ 42.6 µM).
